From PubChem BioAssay (NCI)
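Values below derive from 48-hour exposures of cells grown in 96-well plates, with endpoints linearly interpolated between the two concentrations bracketing the appropriate inhibition level. GI50 is the concentration that inhibits growth by half. The concentration for full growth arrest is given as TGI.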

Assays:
Test in all cases: NCI anticancer screen, dose series, 48 h
LOX IMVI melanoma = tested on: LOX IMVI melanoma
SF-539 CNS = tested on: SF-539 CNS
EKVX NSCLC = tested on: EKVX NSCLC
SNB-75 CNS = tested on: SNB-75 CNS
ACHN renal = tested on: ACHN renal
U251 CNS = tested on: U251 CNS
COLO 205 colon = tested on: COLO 205 colon
RPMI-8226 leukemia = tested on: RPMI-8226 leukemia
NCI/ADR-RES ovarian = tested on: NCI/ADR-RES ovarian
KM12 colon = tested on: KM12 colon

## CC(CC(=O)O)(CC(=O)O)C(=O)O
LOX IMVI melanoma
  TGI: > 100 µM
SF-539 CNS
  TGI: > 100 µM
EKVX NSCLC
  TGI: > 100 µM
SNB-75 CNS
  TGI: > 100 µM
ACHN renal
  TGI: > 100 µM
U251 CNS
  TGI: > 100 µM
COLO 205 colon
  TGI: > 100 µM
RPMI-8226 leukemia
  TGI: > 100 µM
NCI/ADR-RES ovarian
  TGI: > 100 µM
KM12 colon
  TGI: > 100 µM

## CCOP(=O)(OCC)/C(C#N)=C\c1cccc2ccccc12
LOX IMVI melanoma
  TGI: > 59.4 µM
SF-539 CNS
  TGI: > 100 µM
EKVX NSCLC
  TGI: > 100 µM
SNB-75 CNS
  TGI: 88.5 µM
ACHN renal
  TGI: > 100 µM
U251 CNS
  TGI: > 100 µM
COLO 205 colon
  TGI: > 100 µM
RPMI-8226 leukemia
  TGI: > 66.5 µM
NCI/ADR-RES ovarian
  TGI: > 100 µM
KM12 colon
  TGI: > 100 µM

## CC(C)(C)n1cc(-c2ccnc(NCCNS(=O)(=O)c3ccc(Br)cc3)c2)c(-c2cccc(O)c2)n1
LOX IMVI melanoma
  GI50: 1.75 µM
  TGI: 3.15 µM
SF-539 CNS
  GI50: 1.54 µM
  TGI: 3.11 µM
EKVX NSCLC
  GI50: 2.27 µM
  TGI: 6.88 µM
SNB-75 CNS
  GI50: 1.36 µM
  TGI: 3.78 µM
ACHN renal
  GI50: 2.1 µM
  TGI: 4.39 µM
U251 CNS
  GI50: 1.53 µM
  TGI: 3.29 µM
COLO 205 colon
  GI50: 1.49 µM
  TGI: 3.13 µM
RPMI-8226 leukemia
  GI50: 1.6 µM
  TGI: 5 µM
NCI/ADR-RES ovarian
  GI50: 2.13 µM
  TGI: 4.99 µM
KM12 colon
  GI50: 1.99 µM
  TGI: 4.32 µM

## COc1ccc2nc3ccc(OC)cc3c(SCCCN)c2c1
LOX IMVI melanoma
  GI50: 2.22 µM
  TGI: 5.26 µM
SF-539 CNS
  GI50: 13.7 µM
  TGI: 26.8 µM
EKVX NSCLC
  GI50: 15.9 µM
  TGI: 35.6 µM
SNB-75 CNS
  GI50: 13 µM
  TGI: 27.9 µM
ACHN renal
  GI50: 4.72 µM
  TGI: 19.5 µM
U251 CNS
  GI50: 9.09 µM
  TGI: > 67.3 µM
COLO 205 colon
  GI50: 1.42 µM
  TGI: 2.97 µM
RPMI-8226 leukemia
  GI50: 1.78 µM
  TGI: 3.92 µM
NCI/ADR-RES ovarian
  GI50: 13.1 µM
  TGI: 37.1 µM
KM12 colon
  GI50: 4.52 µM
  TGI: 20.5 µM

## Cc1c(C(C)C)cc(OCCO)cc1C(C)C
LOX IMVI melanoma
  TGI: 63.4 µM
SF-539 CNS
  TGI: > 100 µM
EKVX NSCLC
  TGI: 70.9 µM
SNB-75 CNS
  TGI: > 100 µM
ACHN renal
  TGI: > 100 µM
U251 CNS
  TGI: > 100 µM
COLO 205 colon
  TGI: > 100 µM
RPMI-8226 leukemia
  TGI: 74.3 µM
NCI/ADR-RES ovarian
  TGI: > 100 µM
KM12 colon
  TGI: > 100 µM

## COc1cccc(-c2nn(-c3ccccc3)cc2-c2ccnc(NCCNC(=O)Nc3ccc(Cl)c(Cl)c3)c2)c1
LOX IMVI melanoma
  GI50: 1.66 µM
  TGI: 3.21 µM
SF-539 CNS
  GI50: 1.93 µM
  TGI: 4.17 µM
EKVX NSCLC
  GI50: 2.48 µM
  TGI: 16.7 µM
SNB-75 CNS
  GI50: 1.43 µM
  TGI: 5.96 µM
ACHN renal
  GI50: 2.79 µM
  TGI: 10.2 µM
U251 CNS
  GI50: 2.65 µM
  TGI: 7.73 µM
COLO 205 colon
  GI50: 2.07 µM
  TGI: 4.44 µM
RPMI-8226 leukemia
  GI50: 2.6 µM
  TGI: 7.52 µM
NCI/ADR-RES ovarian
  GI50: 2.08 µM
  TGI: 5.64 µM
KM12 colon
  GI50: 2.27 µM
  TGI: 5.79 µM

## COc1ccc(S(=O)(=O)N/N=C/C(=O)O)cc1
LOX IMVI melanoma
  TGI: 733 µM
SF-539 CNS
  TGI: 1080 µM
EKVX NSCLC
  TGI: > 1250 µM
SNB-75 CNS
  TGI: > 1250 µM
ACHN renal
  TGI: 970 µM
U251 CNS
  TGI: 1200 µM
COLO 205 colon
  TGI: > 1250 µM
RPMI-8226 leukemia
  TGI: 887 µM
NCI/ADR-RES ovarian
  TGI: 1030 µM
KM12 colon
  TGI: > 1170 µM

## Cc1ccc(NCSc2ccc(Cl)cc2)cc1
LOX IMVI melanoma
  GI50: > 100 µM
  TGI: > 100 µM
SF-539 CNS
  GI50: 22.9 µM
  TGI: > 100 µM
EKVX NSCLC
  GI50: 31.4 µM
  TGI: > 100 µM
SNB-75 CNS
  GI50: 9.92 µM
  TGI: 45.5 µM
ACHN renal
  GI50: > 100 µM
  TGI: > 100 µM
U251 CNS
  GI50: 17.8 µM
  TGI: > 100 µM
COLO 205 colon
  GI50: 5.94 µM
  TGI: > 100 µM
RPMI-8226 leukemia
  GI50: 2.29 µM
  TGI: > 100 µM
NCI/ADR-RES ovarian
  GI50: > 100 µM
  TGI: > 100 µM
KM12 colon
  GI50: 9.91 µM
  TGI: > 100 µM

## Oc1cccc(-c2nc3ccccc3s2)c1
LOX IMVI melanoma
  TGI: 77 µM
SF-539 CNS
  TGI: > 100 µM
EKVX NSCLC
  TGI: 42.7 µM
SNB-75 CNS
  TGI: 61.8 µM
ACHN renal
  TGI: > 100 µM
U251 CNS
  TGI: > 100 µM
COLO 205 colon
  TGI: > 100 µM
RPMI-8226 leukemia
  TGI: > 100 µM
NCI/ADR-RES ovarian
  TGI: 68.8 µM
KM12 colon
  TGI: 48.6 µM

## CC[C@]12C=CCN3CC[C@]4(C(=C(C(=O)OC)C1)Nc1cc(O)ccc14)[C@@H]32
LOX IMVI melanoma
  GI50: 13.6 µM
  TGI: 26.7 µM
SF-539 CNS
  GI50: 15.1 µM
  TGI: 30.1 µM
EKVX NSCLC
  GI50: 24.6 µM
  TGI: > 100 µM
SNB-75 CNS
  GI50: 7.38 µM
  TGI: 40.2 µM
ACHN renal
  GI50: 18.5 µM
  TGI: 41.4 µM
U251 CNS
  GI50: 15.6 µM
  TGI: 36.9 µM
COLO 205 colon
  GI50: 21.8 µM
  TGI: 47.3 µM
RPMI-8226 leukemia
  GI50: 26.2 µM
  TGI: 79.8 µM
NCI/ADR-RES ovarian
  GI50: 14.4 µM
  TGI: 33.6 µM
KM12 colon
  GI50: 13.1 µM
  TGI: 30.6 µM

## COc1c(O)c(OC)c(C(=O)/C=C/c2ccccc2)c(O)c1OC
LOX IMVI melanoma
  TGI: 87.2 µM
SF-539 CNS
  TGI: 86.7 µM
EKVX NSCLC
  TGI: > 100 µM
SNB-75 CNS
  TGI: > 100 µM
ACHN renal
  TGI: 58.1 µM
U251 CNS
  TGI: > 100 µM
COLO 205 colon
  TGI: > 100 µM
RPMI-8226 leukemia
  TGI: > 100 µM
NCI/ADR-RES ovarian
  TGI: 42.6 µM
KM12 colon
  TGI: > 100 µM

## COC(=O)[C@H](Cc1ccccc1)NC(=O)c1csc([C@@H](C[C@H](C(C)C)N(C)C(=O)[C@@H](NC(=O)[C@H]2CCCCN2C)C2CC2)OC(C)=O)n1
LOX IMVI melanoma
  GI50: 0.0403 µM
  TGI: > 25 µM
SF-539 CNS
  GI50: 0.0376 µM
  TGI: 0.194 µM
EKVX NSCLC
  GI50: 0.119 µM
  TGI: > 25 µM
SNB-75 CNS
  GI50: 0.0257 µM
  TGI: > 25 µM
ACHN renal
  GI50: 0.15 µM
  TGI: > 25 µM
U251 CNS
  GI50: 0.0669 µM
  TGI: > 25 µM
COLO 205 colon
  GI50: 0.048 µM
  TGI: 0.362 µM
RPMI-8226 leukemia
  GI50: 0.019 µM
  TGI: > 25 µM
NCI/ADR-RES ovarian
  GI50: 2.05 µM
  TGI: > 25 µM
KM12 colon
  GI50: 0.0844 µM
  TGI: > 25 µM

## CO[C@H]1C=C[C@]23c4cc5c(cc4CN(CC2O)[C@@H]3C1)OCO5 (stereo not given in full)
LOX IMVI melanoma
  TGI: 21.3 µM
SF-539 CNS
  TGI: 14.6 µM
EKVX NSCLC
  TGI: 52.2 µM
SNB-75 CNS
  TGI: 30.4 µM
ACHN renal
  TGI: 6.73 µM
U251 CNS
  TGI: 38.3 µM
COLO 205 colon
  TGI: 17.9 µM
RPMI-8226 leukemia
  TGI: > 100 µM
NCI/ADR-RES ovarian
  TGI: 58.8 µM
KM12 colon
  TGI: 28.3 µM
